Patent US8470842B2, “Hydrochloride salts of 8-[{1-(3,5-Bis-trifluoromethyl)phenyl)-ethoxy}-methyl]-8-phenyl-1,7-diaza-spiro[4.5]decan-2-one and preparation process therefor” (OPKO Health, Inc., priority 2006, dated 2013)
“Also recorded” adds a separate entry of the source. Where a name gives a salt, the structure may show the parent alone.

How the values were obtained:
Assay type in all cases: physicochemical
[1] = Chemical stability tests on storage under humidity and temperature conditions
Experimental: Chemical stability tests were carried out on aliquots of the salt form of interest by placing a accurately weighed sample of the salt form of the compound of Formula I into a polyethylene bag. The bagged samples were enclosed in fiberboard tubes fitted with metal caps which were stored under the indicated conditions of humidity and temperature for the indicated time. Analysis was carried out by dissolving the contents of a vial and quantifying the amount of solute utilizing HPLC analysis. Where noted the aliquots were stored in capped amber vials under the conditions noted instead of polyethylene bags.
(§1) The stability of the crystalline monohydrate hydrochloride salt form of the compound of Formula I was also examined using the procedure described above for samples contained in polyethylene bags by exposing samples to the following conditions: (a) 60% relative humidity (RH) at 4° C. for twelve months, at 25° C. for eighteen months, and at 50° C. for one month; (b) 40° C. and 75% relative humidity (RH) for twelve weeks, and (c) 70° C. at ambient humidity for one hour. Samples of the crystalline monohydrate hydrochloride form I salt were also tested for one cycle of ICH UV/Vis light stress conditions.
(§2) The stability of the crystalline tosylate form I salt form of the compound of Formula I was examined by placing weighed amounts of the salt into clear glass vials and storing them under the indicated conditions. Periodically a vial was removed and the contents examined for decomposition of the compound. Accordingly, samples of the tosylate form I salt were exposed to the following conditions: (a) 40° C. and 75% relative humidity (RH) for four weeks; (b) 50° C. and ambient relative humidity for four weeks; and (c) 70° C. for one hour. Samples of the tosylate form I salt were separately tested for one cycle of ICH UV/Vis light stress conditions.

[2] = ICH UV/Vis light stress conditions; settings: one cycle of ICH UV/Vis light stress conditions
Experimental: as §1, §2

[3] = Solubility tests (equilibrated slurry, HPLC quantification); settings: for aqueous solubility: water, pH of 4 or less (more acidic)
Experimental: Solubility tests were conducted by placing an excess of the compound in an aliquot of the solvent of interest and allowing the slurry to equilibrate under the selected temperature conditions (typically ambient). When the solvent was water, pH was adjusted to the desired value with hydrochloric acid and sodium hydroxide. When the slurry mixture had equilibrated, the excess solids were centrifuged (water) or filtered (all other solvents) from the supernatant and the amount of compound which had been dissolved was quantified utilizing HPLC analysis of diluted aliquots of the supernatant liquid. Pharmaceutical grade solvents were employed.

[4] = solvent Ethanol, ambient temperature
[5] = solvent Glycerin, ambient temperature
[6] = solvent PEG 400, ambient temperature
[7] = solvent Propylene Glycol, ambient temperature

Row | Compound | form change on storage ([1]; storage under ambient conditions of temperature and humidity after dehydration) | stability under light stress [2] | Solubility (mg/ml, ambient conditions) [3, 4] [mg/mL] | Solubility (mg/ml, ambient conditions) [3, 5] [mg/mL] | Solubility (mg/ml, ambient conditions) [3, 6] [mg/mL] | Solubility (mg/ml, ambient conditions) [3, 7] [mg/mL] | aqueous solubility [3] | temperature up to which the salt is stable ([1]; 70° C. at ambient humidity for one hour, polyethylene bags) | stability at ambient/room temperature over relative humidity range ([1]; ambient temperature, about 5% to about 95% relative humidity) | stability under all tested conditions ([1]; clear glass vials, 40° C./75% RH four weeks, 50° C./ambient RH four weeks, 70° C. one hour, one cycle ICH UV/Vis light stress)
1 | C[C@@H](OC[C@@]1(c2ccccc2)CC[C@]2(CCC(=O)N2)CN1)c1cc(C(F)(F)F)cc(C(F)(F)F)c1 [anhydrous form I salt, (5S,8S)-8-[{(1R)-1-(3,5-Bis-(trifluoromethyl)phenyl)-ethoxy}-methyl]-8-phenyl-1,7-diazaspiro[4.5]decan-2-one] | returns the crystals to the monohydrate form |  |  |  |  |  |  |  |  | 
2 | C[C@@H](OC[C@@]1(c2ccccc2)CC[C@]2(CCC(=O)N2)CN1)c1cc(C(F)(F)F)cc(C(F)(F)F)c1 [monohydrate hydrochloride form I salt, (5S,8S)-8-[{(1R)-1-(3,5-Bis-(trifluoromethyl)phenyl)-ethoxy}-methyl]-8-phenyl-1,7-diazaspiro[4.5]decan-2-one] |  | stable under light stress conditions | 185 | 16 | 20 | 160 | at least 1.0 mg/ml | about 70 °C | does not decompose or dehydrate; also recorded: stable at room temperature | 
3 | C[C@@H](OC[C@@]1(c2ccccc2)CC[C@]2(CCC(=O)N2)CN1)c1cc(C(F)(F)F)cc(C(F)(F)F)c1 [tosylate form I salt, (5S,8S)-8-[{(1R)-1-(3,5-Bis-(trifluoromethyl)phenyl)-ethoxy}-methyl]-8-phenyl-1,7-diazaspiro[4.5]decan-2-one] |  |  | 75 | 2.5 | 1.8 | 20 | at least 0.38 mg/ml |  |  | stable under all tested conditions
